# Assay results reported in ChEMBL document CHEMBL1201861, “Genomics of Drug Sensitity in Cancer screening data, Wellcome Trust Sanger Institute”.
# Tested on: K562
# Experiment: cells
# Assay type: functional, cell-based, Homo sapiens
# Conditions: Homo sapiens, K562
# Description: SANGER: Inhibition of human K-562 cell growth in a cell viability assay.
row,Structure (SMILES),IC50 [µM]
1,COc1cc2ncn(-c3cc(OCc4ccccc4S(C)(=O)=O)c(C#N)s3)c2cc1OC [GSK-319347A],> 5

# Tested on: KS-1;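 further: growth inhibition of KS-1 cells, read out with a cell viability assay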
# Experiment: cells
# Assay type: functional, cell-based, Homo sapiens
# Conditions: Homo sapiens, KS-1
# Description: SANGER: Inhibition of human KS-1 cell growth in a cell viability assay.
row,Structure (SMILES),IC50 [µM]
1,COc1cc2ncn(-c3cc(OCc4ccccc4S(C)(=O)=O)c(C#N)s3)c2cc1OC [GSK-319347A],> 5

# Tested on: MMAC-SF;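 further: growth inhibition of human MMAC-SF cells, read out with a cell viability assay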
# Experiment: cells
# Assay type: functional, cell-based, Homo sapiens
# Conditions: Homo sapiens, MMAC-SF
# Description: SANGER: Inhibition of human MMAC-SF cell growth in a cell viability assay.
row,Structure (SMILES),IC50 [µM]
1,COc1cc2ncn(-c3cc(OCc4ccccc4S(C)(=O)=O)c(C#N)s3)c2cc1OC [GSK-319347A],> 5

# Tested on: LU-139
# Experiment: cells
# Assay type: functional, cell-based, Homo sapiens
# Conditions: Homo sapiens, LU-139
# Description: SANGER: Inhibition of human LU-139 cell growth in a cell viability assay.
row,Structure (SMILES),IC50 [µM]
1,COc1cc2ncn(-c3cc(OCc4ccccc4S(C)(=O)=O)c(C#N)s3)c2cc1OC [GSK-319347A],> 5

# Tested on: A388;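 further: growth inhibition of human A388 cells, read out with a cell viability assay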
# Experiment: cells
# Assay type: functional, cell-based, Homo sapiens
# Conditions: Homo sapiens, A388
# Description: SANGER: Inhibition of human A388 cell growth in a cell viability assay.
row,Structure (SMILES),IC50 [µM]
1,COc1cc2ncn(-c3cc(OCc4ccccc4S(C)(=O)=O)c(C#N)s3)c2cc1OC [GSK-319347A],> 5

# Tested on: HCC1187;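 further: growth inhibition of HCC1187 cells, read out with a cell viability assay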
# Experiment: cells
# Assay type: functional, cell-based, Homo sapiens
# Conditions: Homo sapiens, HCC1187
# Description: SANGER: Inhibition of human HCC1187 cell growth in a cell viability assay.
row,Structure (SMILES),IC50 [µM]
1,COc1cc2ncn(-c3cc(OCc4ccccc4S(C)(=O)=O)c(C#N)s3)c2cc1OC [GSK-319347A],> 5

# Tested on: NTERA-2-cl-D1;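 further: inhibition of cell growth, measured with a cell viability assay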
# Experiment: cells
# Assay type: functional, cell-based, Homo sapiens
# Conditions: Homo sapiens, NTERA-2-cl-D1
# Description: SANGER: Inhibition of human NTERA-S-cl-D1 cell growth in a cell viability assay.
row,Structure (SMILES),IC50 [µM]
1,COc1cc2ncn(-c3cc(OCc4ccccc4S(C)(=O)=O)c(C#N)s3)c2cc1OC [GSK-319347A],> 5

# Tested on: NCI-H1770;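 further: growth inhibition of NCI-H1770 cells determined with a viability readout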
# Experiment: cells
# Assay type: functional, cell-based, Homo sapiens
# Conditions: Homo sapiens, NCI-H1770
# Description: SANGER: Inhibition of human NCI-H1770 cell growth in a cell viability assay.
row,Structure (SMILES),IC50 [µM]
1,COc1cc2ncn(-c3cc(OCc4ccccc4S(C)(=O)=O)c(C#N)s3)c2cc1OC [GSK-319347A],> 5

# Tested on: PSN1;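 further: suppression of growth of human PSN1 cells, read out by a cell viability assay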
# Experiment: cells
# Assay type: functional, cell-based, Homo sapiens
# Conditions: Homo sapiens, PSN1
# Description: SANGER: Inhibition of human PSN1 cell growth in a cell viability assay.
row,Structure (SMILES),IC50 [µM]
1,COc1cc2ncn(-c3cc(OCc4ccccc4S(C)(=O)=O)c(C#N)s3)c2cc1OC [GSK-319347A],> 5

# Tested on: LB2241-RCC;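 further: cell viability assay measuring how strongly the cultured human renal carcinoma line is prevented from growing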
# Experiment: cells
# Assay type: functional, cell-based, Homo sapiens
# Conditions: Homo sapiens, LB2241-RCC
# Description: SANGER: Inhibition of human LB2241-RCC cell growth in a cell viability assay.
row,Structure (SMILES),IC50 [µM]
1,COc1cc2ncn(-c3cc(OCc4ccccc4S(C)(=O)=O)c(C#N)s3)c2cc1OC [GSK-319347A],> 5

# Tested on: NCI-H23;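 further: cell viability assay measuring growth inhibition of NCI-H23 cells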
# Experiment: cells
# Assay type: functional, cell-based, Homo sapiens
# Conditions: Homo sapiens, NCI-H23
# Description: SANGER: Inhibition of human NCI-H23 cell growth in a cell viability assay.
row,Structure (SMILES),IC50 [µM]
1,COc1cc2ncn(-c3cc(OCc4ccccc4S(C)(=O)=O)c(C#N)s3)c2cc1OC [GSK-319347A],> 5

# Tested on: A4-Fuk;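 further: growth inhibition of A4-Fuk cells, read out by a cell viability assay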
# Experiment: cells
# Assay type: functional, cell-based, Homo sapiens
# Conditions: Homo sapiens, A4-Fuk
# Description: SANGER: Inhibition of human A4-Fuk cell growth in a cell viability assay.
row,Structure (SMILES),IC50 [µM]
1,COc1cc2ncn(-c3cc(OCc4ccccc4S(C)(=O)=O)c(C#N)s3)c2cc1OC [GSK-319347A],> 5

# Tested on: RKO;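 further: growth inhibition of human RKO cells, read out with a cell viability assay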
# Experiment: cells
# Assay type: functional, cell-based, Homo sapiens
# Conditions: Homo sapiens, RKO
# Description: SANGER: Inhibition of human RKO cell growth in a cell viability assay.
row,Structure (SMILES),IC50 [µM]
1,COc1cc2ncn(-c3cc(OCc4ccccc4S(C)(=O)=O)c(C#N)s3)c2cc1OC [GSK-319347A],> 5

# Tested on: NCI-H209;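 further: growth inhibition of human NCI-H209 cells, measured by a cell viability assay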
# Experiment: cells
# Assay type: functional, cell-based, Homo sapiens
# Conditions: Homo sapiens, NCI-H209
# Description: SANGER: Inhibition of human NCI-H209 cell growth in a cell viability assay.
row,Structure (SMILES),IC50 [µM]
1,COc1cc2ncn(-c3cc(OCc4ccccc4S(C)(=O)=O)c(C#N)s3)c2cc1OC [GSK-319347A],> 5

# Tested on: ES5;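 further: growth inhibition of human ES5 cells, read out by a cell viability assay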
# Experiment: cells
# Assay type: functional, cell-based, Homo sapiens
# Conditions: Homo sapiens, ES5
# Description: SANGER: Inhibition of human ES5 cell growth in a cell viability assay.
row,Structure (SMILES),IC50 [µM]
1,COc1cc2ncn(-c3cc(OCc4ccccc4S(C)(=O)=O)c(C#N)s3)c2cc1OC [GSK-319347A],> 5

# Tested on: NOS-1;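 further: growth inhibition of the human NOS-1 cell line, read out with a cell viability assay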
# Experiment: cells
# Assay type: functional, cell-based, Homo sapiens
# Conditions: Homo sapiens, NOS-1
# Description: SANGER: Inhibition of human NOS-1 cell growth in a cell viability assay.
row,Structure (SMILES),IC50 [µM]
1,COc1cc2ncn(-c3cc(OCc4ccccc4S(C)(=O)=O)c(C#N)s3)c2cc1OC [GSK-319347A],> 5

# Tested on: no-10;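 further: growth inhibition of no-10 cells, read out with a cell viability assay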
# Experiment: cells
# Assay type: functional, cell-based, Homo sapiens
# Conditions: Homo sapiens
# Description: SANGER: Inhibition of human no-10 cell growth in a cell viability assay.
row,Structure (SMILES),IC50 [µM]
1,COc1cc2ncn(-c3cc(OCc4ccccc4S(C)(=O)=O)c(C#N)s3)c2cc1OC [GSK-319347A],> 5

# Tested on: EKVX;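 further: growth inhibition of human EKVX cells, read out with a cell viability assay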
# Experiment: cells
# Assay type: functional, cell-based, Homo sapiens
# Conditions: Homo sapiens, EKVX
# Description: SANGER: Inhibition of human EKVX cell growth in a cell viability assay.
row,Structure (SMILES),IC50 [µM]
1,COc1cc2ncn(-c3cc(OCc4ccccc4S(C)(=O)=O)c(C#N)s3)c2cc1OC [GSK-319347A],> 5

# Tested on: SW 954;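 further: growth inhibition of SW954 human cancer cells, read out as cell viability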
# Experiment: cells
# Assay type: functional, cell-based, Homo sapiens
# Conditions: Homo sapiens, SW 954
# Description: SANGER: Inhibition of human SW954 cell growth in a cell viability assay.
row,Structure (SMILES),IC50 [µM]
1,COc1cc2ncn(-c3cc(OCc4ccccc4S(C)(=O)=O)c(C#N)s3)c2cc1OC [GSK-319347A],> 5

# Tested on: CW-2;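 further: growth inhibition of CW-2 cells, read out by a cell viability assay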
# Experiment: cells
# Assay type: functional, cell-based, Homo sapiens
# Conditions: Homo sapiens, CW-2
# Description: SANGER: Inhibition of human CW-2 cell growth in a cell viability assay.
row,Structure (SMILES),IC50 [µM]
1,COc1cc2ncn(-c3cc(OCc4ccccc4S(C)(=O)=O)c(C#N)s3)c2cc1OC [GSK-319347A],> 5

# Tested on: ES8;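 further: growth inhibition of human ES8 cells, read out with a cell viability assay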
# Experiment: cells
# Assay type: functional, cell-based, Homo sapiens
# Conditions: Homo sapiens, ES8
# Description: SANGER: Inhibition of human ES8 cell growth in a cell viability assay.
row,Structure (SMILES),IC50 [µM]
1,COc1cc2ncn(-c3cc(OCc4ccccc4S(C)(=O)=O)c(C#N)s3)c2cc1OC [GSK-319347A],> 5

# Tested on: SHP77;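 further: growth inhibition of human SHP-77 cells measured by a cell viability assay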
# Experiment: cells
# Assay type: functional, cell-based, Homo sapiens, SHP-77
# Conditions: Homo sapiens, SHP77
# Description: SANGER: Inhibition of human SHP-77 cell growth in a cell viability assay.
row,Structure (SMILES),IC50 [µM]
1,COc1cc2ncn(-c3cc(OCc4ccccc4S(C)(=O)=O)c(C#N)s3)c2cc1OC [GSK-319347A],> 5

# Tested on: MOLT-4;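 further: growth inhibition of MOLT-4 cells, determined with a cell viability readout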
# Experiment: cells
# Assay type: functional, cell-based, Homo sapiens
# Conditions: Homo sapiens, MOLT-4
# Description: SANGER: Inhibition of human MOLT-4 cell growth in a cell viability assay.
row,Structure (SMILES),IC50 [µM]
1,COc1cc2ncn(-c3cc(OCc4ccccc4S(C)(=O)=O)c(C#N)s3)c2cc1OC [GSK-319347A],> 5

# Tested on: OS-RC-2;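 further: growth inhibition of human OS-RC-2 cells, measured by a cell viability assay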
# Experiment: cells
# Assay type: functional, cell-based, Homo sapiens
# Conditions: Homo sapiens, OS-RC-2
# Description: SANGER: Inhibition of human OS-RC-2 cell growth in a cell viability assay.
row,Structure (SMILES),IC50 [µM]
1,COc1cc2ncn(-c3cc(OCc4ccccc4S(C)(=O)=O)c(C#N)s3)c2cc1OC [GSK-319347A],> 5
